In a melting point compilation (Tetko et al.):

Compound	melting point [°C]
O=C(O)c1cc2ccc(-c3ccccc3)cc2[nH]1	250 to 252
COc1ccc(N)cc1CO	115 to 117
NC(=O)c1n[nH]c2ccc(N)cc12	199 to 201
CC1(C)Nc2ccccc2NC1=O	179 to 181
Cc1ccc(S(C)(=O)=O)cc1S(=O)(=O)Cl	136 to 138
O=C(O)C(Oc1ccc(F)cc1Cl)c1ccccc1 (configuration not stated)	134 to 136
O=[N+]([O-])c1ccc(S(=O)(=O)Cl)c(Br)c1	70 to 72
COc1ccc(Cl)c(S(=O)(=O)Cl)c1	41 to 43
NC(=S)COc1ccc(Cl)cc1	107 to 111
Fc1ccc(Oc2ccncc2)c(Br)c1	74 to 76
COc1ccc(CBr)cc1C#N	119 to 121
Cc1cc(F)ccc1-n1cc(O)c(C(=O)O)n1	149 to 151
Nc1nnc(-c2cccc(Br)c2)s1	216 to 218
Nc1ncc(Br)cc1F	87 to 89
O=C(O)c1cc2ccccc2c(OCC(F)(F)F)n1	206 to 208
O=C1CNc2ccccc2C(=O)N1	207 to 209
CCCC(C)(NC(=O)OCc1ccccc1)C(=O)O (configuration not stated)	103 to 105
CC(C)CCn1cc(C(=O)O)nn1	187 to 189
Nc1nc2cc(Cl)ccc2s1	197 to 199
Fc1ccccc1-c1nnc(CCl)o1	86 to 88
O=C(O)c1ccccc1Nc1ccc(SC(F)F)cc1	116 to 118

Compound	melting point [°C]
Cc1ccc(C)c(SCc2nc3sc(C(=O)O)c(C)c3c(=O)[nH]2)c1	295 to 297
NC(=S)Nc1ccc2c(c1)OCCO2	211 to 213
O=C(O)c1ccn(-c2cccc(Br)c2)n1	142 to 144
Fc1cc2nc(Cl)ccc2cc1Br	161 to 163
Cc1nn(C)c2nc(Cl)c(C=O)cc12	182 to 184
Cc1cc(C)c(C(=O)O)cc1N	203 to 205
COC(=O)c1cc2ccc(F)cc2s1	88 to 90
Cc1ccc(-c2nnco2)cc1N	136 to 138
Cn1nc(Br)c2c(=O)[nH]cnc21	296 to 298
Cn1cnc2cc(C=O)ccc21	99 to 101
Nc1ccc(Cl)c(CO)n1	147 to 149
Nc1ccc(OCc2cccs2)cc1	61 to 63
Nc1ccc(S(=O)(=O)Nc2ccc(Cl)cc2)cc1N	146 to 150
Cn1c(N)nccc1=O	257 to 259
CC(C(=O)O)N(C)c1nccn2cnnc12 (configuration not stated)	153 to 155
Cc1cccc(C(N)=O)n1	117 to 119
Cc1nc2sccn2c1C=O	94 to 96
Clc1nc(-c2ccccc2)cs1	55 to 57
C=CS(=O)(=O)Oc1ccccc1	39 to 42
O=C(O)CC(O)c1cc(Cl)cc(Cl)c1 (configuration not stated)	198 to 200
O=C(O)c1ccnc(Oc2ccccc2)c1	241 to 243

Compound	melting point [°C]
ClCc1noc(-c2ccc(Cl)cc2)n1	79 to 81
Cc1ccc(-c2cnnc(N)n2)s1	300 to 302
Cc1ccc(OCCCC(=O)O)c(C)c1	126 to 128
Nc1nc(-c2ccccc2F)cs1	102 to 104
O=C(O)CCOc1ccc(F)c(Cl)c1	82 to 84
NC(CSCc1cccc2ccccc12)C(=O)O (configuration not stated)	199 to 201
Nc1ncc(Br)nc1C(=O)O	172 to 174
OCC1CNc2ccccc2C1 (configuration not stated)	79 to 81
CC(C)C1CNC(=O)C1 (configuration not stated)	98 to 100
CC(C)Oc1ccc(Cl)cc1C(=O)O	83 to 85
Cc1cccc(-c2nnc(S)o2)c1	157 to 161
NC(=S)c1ccc(Br)s1	169 to 171
Cc1ccc(OCc2nc(N)no2)cc1	144 to 146
Nc1c(I)cc(I)cc1I	187 to 189
Cc1nn(-c2cncc3nnnn23)c(C)c1CC(=O)O	173 to 175
Nc1ccc(-n2cncn2)c(F)c1	126 to 128
CC(NS(C)(=O)=O)C(=O)NN (configuration not stated)	117 to 119
Cc1nn(-c2ncccn2)c(N)c1Br	159 to 161
Nc1ccn(Cc2cccnc2)n1	88 to 90
Nc1nnc(Cc2cccc(Cl)c2)s1	196 to 198
Cc1cc(Cl)nnc1C	45 to 47

Compound	melting point [°C]
Nc1cccc(Oc2ccnc3ccccc23)c1	114 to 116
O=C(NC(C(=O)O)c1ccccc1)c1ccccc1 (configuration not stated)	198 to 200
CCC1Cc2c(Br)cccc2C(=O)N1 (configuration not stated)	101 to 103
Cc1[nH]c2ccc(CN)cc2c1C	149 to 151
CCOc1ccc(-c2nn(-c3ccccc3)cc2C=O)cc1Cl	100 to 102
Cn1cc(S(=O)(=O)Cl)cn1	48 to 50
c1ccc(-c2ncc[nH]2)nc1	133 to 135
c1ccc(NCc2cccs2)nc1	76 to 78
O=C(O)c1sc2cc(C(F)(F)F)ccc2c1Cl	205 to 207
CC(Br)c1ccc2ccccc2c1 (configuration not stated)	62 to 64
O=C(CCl)c1cn(-c2cccc(C(F)(F)F)c2)nn1	162 to 164
Nc1c(O)cccc1F	121 to 123
CCCNC(=S)NN	61 to 63
Sc1nnc(-c2ccccc2)n1-c1ccccc1	292 to 294
COc1cc(C(=O)O)ccc1OCc1cccnc1	179 to 181
CCc1ccc(CC)c(-c2csc(N)n2)c1	66 to 68
COC(=O)C(N)c1cccnc1 (configuration not stated)	61 to 63
O=C(c1cc2cc(Br)ccc2o1)c1cccs1	88 to 90
CNC(CO)c1ccc(OC)cc1 (configuration not stated)	57 to 59
Fc1ccccc1Nc1nnc(S)s1	170 to 172
Clc1ccc(Cn2cncn2)cn1	61 to 63

The remaining lines, values ahead:

melting point [°C]	Compound
139 to 141	NC(=O)NCc1ccccn1
134 to 136	O=C(O)C1(c2ccc(F)cc2F)CCOCC1
172 to 174	CN1CCC/C1=N/S(=O)(=O)c1ccc(N)cc1
152 to 155	O=C(O)CCCNS(=O)(=O)c1cccc(C(F)(F)F)c1
154 to 156	CC(C)NC(N)=O
123 to 125	O=C(CCl)NCc1ccccc1S(=O)(=O)N1CCOCC1
24 to 26	CCC(=O)NN
222 to 224	N#Cc1cnn2cc(C=O)cnc12
252 to 254	NS(=O)(=O)c1ccc2c(c1)CC(=O)N2
173 to 175	COC(=O)COc1c(C)cc(C(=O)O)cc1C
94 to 96	CCC1(C(=O)O)CCN(C(=O)OC(C)(C)C)C1 (configuration not stated)
149 to 151	NS(=O)(=O)N1CCc2ccccc21
211 to 213	C#CCNC(=O)Nc1ccc(Cl)cc1
82 to 84	O=C(CCl)NC1CCCCCCC1
264 to 266	COc1ccc(C=O)c2cc(C(=O)O)oc12
230 to 232	CS(=O)(=O)N1CCc2cc(C(=O)O)ccc21
123 to 125	O=C(O)CCCNS(=O)(=O)c1ccc(Cl)c(Cl)c1
284 to 286	O=C(O)c1ccc(NC(=O)C23CC4CC(CC(C4)C2)C3)cc1
203 to 205	CC(=O)c1c(C)[nH]c(N=Nc2cccc(C(=O)O)c2)c1C
129 to 131	OCCN1CCN(c2ccc(CO)nn2)CC1
180 to 182	N#Cc1ccc(OCC(=O)NN)cc1

melting point [°C]	Compound
239 to 241	Cc1ccc2c(c1)C(=O)N(CCCC(=O)O)C2=O
113 to 115	CC(C)CC(=O)NCCc1ccc(S(N)(=O)=O)s1
136 to 138	CCCc1ccc(N2CC(C(=O)O)CC2=O)cc1 (configuration not stated)
203 to 205	O=C(O)c1occc1CN1C(=O)Cc2ccccc21
291 to 293	CCNc1cc(C(=O)O)ccn1
51 to 53	CCOC(=O)C(=O)CC(=O)c1ccc(OC)cc1
109 to 111	C1CCC(c2nnn[nH]2)CC1
54 to 56	NCC1(CO)CCOCC1
310 to 312	O=C(O)c1ccc2c(c1)CC(c1ccccc1)OC2=O (configuration not stated)
159 to 161	CC(Cl)C(=O)NCCc1ccc(S(N)(=O)=O)cc1 (configuration not stated)
101 to 103	CN(CC(=O)O)C(=O)c1cccs1
211 to 213	Cc1cn2c(CC(=O)O)csc2n1
164 to 166	O=C(O)c1sc(Cl)nc1Cl
134 to 136	O=C1CNC(=O)N1CCBr
108 to 110	COC(=O)c1ccc(CNC(=O)CCl)cc1
104 to 106	Cc1cc(N)n(CCC#N)n1
356 to 358	Cn1c(N)c(C(=O)CCl)c(=O)[nH]c1=O
164 to 166	COC(=O)C(=O)CC(=O)c1ccc(N2CCOCC2)cc1
30 to 32	Cc1nc(Cl)c2c(n1)CCCC2
124 to 126	Cn1c(S)nnc1C1CCC1
174 to 176	CC1CCCCC1(NC(=O)OC(C)(C)C)C(=O)O (configuration not stated)

melting point [°C]	Compound
124 to 126	O=C(O)CCCN1C(=O)CSC1=S
190 to 192	O=C(O)CCn1c(=O)oc2cc(S(=O)(=O)N3CCCC3)ccc21
125 to 127	NC(=O)Nc1cccc(N)c1
124 to 126	Cc1cccc(COc2cccc(C(=O)O)c2)c1
119 to 121	CCCOc1cn(-c2ccccc2)nc1C(=O)O
218 to 220	Cc1cc(C(=O)CCl)c(C)n1CC(N)=O
128 to 130	Cc1cc(C(=O)N2CCCC(C)C2)ccc1N (configuration not stated)
134 to 136	CC(C)(C)NC(=O)N1CCCc2c(C(=O)O)cccc21
59 to 61	CC1CCCC(O)(CN)C1 (configuration not stated)
162 to 164	Cn1cc([N+](=O)[O-])c(C(=O)O)n1
72 to 74	CCOC(=O)c1ccc(N2CC(N)C2)nc1
175 to 177	CS(=O)(=O)c1ccc(F)c(C(=O)O)c1F
201 to 203	NC(=O)CNS(=O)(=O)c1ccc(F)c(C(=O)O)c1
146 to 148	N#CCC(=O)NN1CCCCC1=O
168 to 170	N#Cc1ccccc1-c1ccccc1C(=O)O
41 to 43	CCN(C)c1ccc(C(C)=O)cc1
68 to 70	O=C(Cc1ccccc1Cl)c1ccccc1
169 to 171	Cn1nc(C2CCCCC2)cc1N
302 to 304	c1nc(N2CCCC2)c2nc[nH]c2n1
236 to 238	CS(=O)(=O)c1cc(C(=O)O)ccc1Br
180 to 182	O=C(O)Cn1nnc(-c2ccccc2)n1
